Test results: US20260176289A1, “SMALL MOLECULE INHIBITORS OF KRAS PROTEINS” (Merck Sharp & Dohme LLC, priority 2022, published 2026)
Like-named read-outs stand apart in the source and are kept apart here. Blank lines part the entries; values can stand above or below the molecule they belong to.

How the values were obtained:
[1] = biological target: KRAS-G12V (Homo sapiens, UniProt P01116, G12V); assay: SOS-catalyzed nucleotide exchange assay (Procedure A, TR-FRET), KRAS-G12V; assay type: biochemical; conditions: nucleotide exchange, read-out: KRAS G12V GNE IC50
Description: (§1) Procedure for SOS-Catalyzed Nucleotide Exchange Assay for KRAS-WT, G12C/D/V, G13D, HRAS, and NRAS (Procedure A)
(§2) Recombinant KRAS-G12C protein used in this assay has an additional triple mutation (C51S/C80L/C118S). Whereas KRAS-WT, G12D/V, G13D, HRAS and NRAS are in context of their WT protein sequence background. Specifically, the SOS-catalyzed nucleotide exchange assay utilizes a preformed TR-FRET complex containing a specific biotinylated RAS protein (KRAS-WT, G12C/V/D, G13D, HRAS, NRAS; described above) with Bodipy-GDP, and Terbium-streptavidin. Compounds are preincubated with this complex for 60 minutes. Subsequently, recombinant human SOS protein and unlabeled GTP are added to initiate the exchange reaction. Small molecule inhibitors stabilize the Bodipy-GDP complex whereas the untreated protein rapidly exchanges Bodipy-GDP for unlabeled GTP resulting in reduced TR-FRET signal.
(§3) To assemble the preformed TR-FRET complexes, each biotinylated RAS protein is diluted to 2 μM in an EDTA Buffer (20 mM HEPES pH 7.5, 50 mM sodium chloride, 10 mM EDTA, and 0.01% Tween) and incubated at room temperature for one hour. This mixture is then further diluted to 90 nM in an Assay Buffer (20 mM HEPES pH 7.5, 150 mM sodium chloride, 10 mM magnesium chloride, and 0.005% Tween) containing 15 nM of Terbium-Streptavidin (Invitrogen, catalog #PV3577) and 900 nM of Bodipy-GDP (Invitrogen, catalog #G22360) and incubated at room temperature for six hours. It should be noted that this preformed TR-FRET complex for each of the RAS protein were made ahead of time, aliquoted and stored at −80° C. until the day of the experiment.
(§4) Each test compound (10 mM stock in DMSO) is diluted in DMSO to make a final-10-point, 3-fold dilution and is acoustically dispensed into a 384-well assay plate (Corning, catalog #3820) using an Echo 550 (Labcyte). Each well of the assay plate receives 3 μL of a specific 3×RAS preformed TR-FRET complex and 3 μL of Assay Buffer and is incubated at room temperature for 60 minutes (preincubation time). Each well then receives 3 μL of 3×recombinant human SOS protein and GTP (Sigma, G8877) in Assay Buffer and is incubated at room temperature for 30 minutes (G13D), 60 minutes (KRAS WT/G12C/D, H/NRAS) or 90 minutes for G12V. The final reaction in each well of 9 μL consists of 3 mM GTP, specific Ras and SOS proteins in the following concentrations: KRAS-G12C/SOS=3 nM/40 nM, KRAS-WT and G12D/SOS=1 nM/40 nM, KRAS-G12V/SOS=1.25 nM/160 nM. KRAS-G13D/SOS=1.25 nM/0 nM, HRAS and NRAS=1.25 nM/40 nM.
(§5) The time-resolved fluorescence resonance energy transfer (TR-FRET) signal is measured on an Envision (PerkinElmer) plate reader: Excitation filter=340 nm; emission 1=495 nm; emission2=520 nm; dichroic mirror=D400/D505; delay time=[…]. The signal of each well is determined as the ratio of the emission at 520 nm to that at 495 nm. Percent effect of each well is determined after normalization to control wells containing DMSO (no effect) or a saturating concentration of inhibitor (max effect). The apparent effect as a function of compound concentration is fit to a four-parameter logistic equation.

[2] = tested on: AsPC-1 cells; assay: Cellular phospho-ERK assay, AsPC-1 cells (homozygous KRAS-G12D); assay type: cell-based; conditions: Homo sapiens, ASPC1, 2 h, read-out: AsPC1 pERK IC50
Procedure: Procedure for Cellular Phospho-ERK Assay in KRAS Wild Type and Mutant (G12D, G12V) Cell Lines
MKN-1 cells (JCRB JCRB0252) containing amplified wild-type KRAS, were cultured in growth medium that contains RPMI 1640-GlutaMAX™-I (ThermoFisher Scientific 61870) containing 10% heat inactivated fetal bovine serum (ThermoFisher Scientific 10091148), 1 mM sodium pyruvate and 10 mM HEPES. PANC08.13 cells (ATCC® CRL-2551™), containing homozygous KRAS-G12D activating mutation, were cultured in growth medium made of RPMI1640-GlutaMAX™-I (ThermoFisher Scientific 61870) containing 15% heat inactivated fetal bovine serum (ThermoFisher Scientific 10091148)). AsPC-1 cells (ATCC® CRL-1682™), containing homozygous KRAS-G12D activating mutation, were cultured in T150 flask in growth medium (RPMI medium 1640-GlutaMAX™-I (ThermoFisher Scientific 61870) containing 10% fetal bovine serum (ThermoFisher Scientific 10091148)). SW620 cells (ATCC® […]), containing homozygous KRAS-G12V activating mutation, were cultured in growth medium that contains RPMI 1640-GlutaMAX™-I (ThermoFisher Scientific 61870) containing 10% heat inactivated fetal bovine serum (ThermoFisher Scientific 10091148).
Cells for the assay were harvested in growth medium after TrypLE (ThermoFisher scientific 12604021) digestion and were seeded in a 384-well collagen coated cell culture plate (Corning 356702) at a density of 10,000-15,000 cells/20 μL/well, and incubated at 37° C., 5% CO2 overnight. The compound (with 10 mM stock concentration) dose-response titrations were prepared [30 μM final ERK detection assay concentration and 1:3 dilutions, 10-point dose response] and appropriate amounts (270 nL) of test compounds were dispensed in a 384-well intermediate plate using an Echo 550 liquid handler. 30 μL/well of RPMI medium 1640-GlutaMAX™—I was added to the intermediate plate and the contents of the intermediate plate (10 μL/well) were then transferred to the 384-well collagen coated cell culture plate, which was incubated at 37° C., 5% CO2 for 2 hours. After removal of medium from the collagen coated cell culture plate, cells were lysed in lysis buffer from Alpha SureFire® Ultra™ Multiplex p-ERK and total ERK assay kit (PerkinElmer MPSU-PTERK) containing Halt™ Protease and Phosphatase inhibitor cocktail (ThermoFisher Scientific 78446) at room temperature with constant shaking at 300 rpm for 30 minutes. The cell lysates were then transferred to an OptiPlate-384 plate (PerkinElmer 6005620), and the phosphorylation of ERK (p-ERK) and total ERK levels were detected by Alpha SureFire® Ultra™ Multiplex p-EEK kit and total ERK assay kit (PerkinElmer MPSU-PTERK) following the manufacturer's protocol. Assay plates were read on a En Vision Multimode Plate Reader (PerkinElmer), and the ratio of p-ERK vs. total ERK in each well was used as the final readout. Dose response curves were analyzed using a 4-parameter logistic model to calculate IC50 values using Spotfire software.

[3] = biological target: KRAS-WT (Homo sapiens, UniProt P01116); assay: SOS-catalyzed nucleotide exchange assay (Procedure A, TR-FRET), KRAS-WT; assay type: biochemical; conditions: nucleotide exchange, read-out: KRAS WT GNE IC50
Description: as §1, §2, §3, §4, §5

[4] = biological target: KRAS-G12D (Homo sapiens, UniProt P01116, G12D); assay: SOS-catalyzed nucleotide exchange assay (Procedure A, TR-FRET), KRAS-G12D; assay type: biochemical; conditions: nucleotide exchange, read-out: KRAS G12D GNE IC50
Description: as §1, §2, §3, §4, §5

KRAS-G12D, sequence (P01116 with tags, fused parts or gaps isoform P01116-2 G12D): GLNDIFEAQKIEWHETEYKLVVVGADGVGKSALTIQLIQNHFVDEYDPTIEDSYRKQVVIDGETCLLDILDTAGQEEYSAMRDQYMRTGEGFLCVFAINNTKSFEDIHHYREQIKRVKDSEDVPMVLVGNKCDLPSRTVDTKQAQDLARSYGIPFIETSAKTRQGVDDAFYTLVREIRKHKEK
KRAS-G12V, sequence (P01116 with tags, fused parts or gaps isoform P01116-2 G12V): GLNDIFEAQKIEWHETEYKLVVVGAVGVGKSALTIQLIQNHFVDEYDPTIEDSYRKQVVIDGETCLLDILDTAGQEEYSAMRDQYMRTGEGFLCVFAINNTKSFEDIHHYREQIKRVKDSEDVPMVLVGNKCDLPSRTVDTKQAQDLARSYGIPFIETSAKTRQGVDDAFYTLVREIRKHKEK
KRAS-WT, sequence (P01116 with tags, fused parts or gaps isoform P01116-2): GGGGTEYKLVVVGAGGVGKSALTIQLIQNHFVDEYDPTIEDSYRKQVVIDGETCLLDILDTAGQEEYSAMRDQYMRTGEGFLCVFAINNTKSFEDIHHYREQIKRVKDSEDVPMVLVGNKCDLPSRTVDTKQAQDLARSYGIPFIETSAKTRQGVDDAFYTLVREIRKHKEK

Compound: C[C@@]1(O)COCCN(c2nc(OC[C@]3(CN4[C@@H]5CC[C@H]4C[C@H](F)C5)CC3(F)F)nc3sc4c(-c5c(C6(F)CC6)c(Cl)cc6[nH]ncc56)nccc4c23)C1 [Ex-251, (6S)-4-(8-(6-chloro-5-(1-fluorocyclopropyl)-1H-indazol-4-yl)-2-(((R)-2,2-difluoro-1-(((1R,3S,5S)-3-fluoro-8-azabicyclo[3.2.1]octan-8-yl)methyl)cyclopropyl)metho-xy)pyrido[4′,3′:4,5]thieno[2,3-d]pyrimidin-4-yl)-6-methyl-1,4-oxazepan-6-ol]
IC50 [1]: 110 nM
IC50 ([2]; 2 hours compound incubation): 670 nM
IC50 [3]: 489 nM
IC50 [4]: 53 nM

Compound: CCC1=CC(F)(F)c2cc3[nH]ncc3c(-c3nccc4c3sc3nc(OC[C@@]56CCCN5C[C@H](F)C6)nc(N5CCOC[C@@](C)(O)C5)c34)c21 [Ex-114, (6S)-4-(8-(5-ethyl-7,7-difluoro-1,7-dihydrocyclopenta[f]inda-zol-4-yl)-2-(((2R,7aS)-2-fluorotetrahydro-1H-pyrrolizin-7a(5H)-yl)methoxy)pyrido[4′,3′:4,5]thi-eno[2,3-d]pyrimidin-4-yl)-6-methyl-1,4-oxazepan-6-ol]
IC50 [1]: 278 nM
IC50 ([2]; KRAS-G12D, 2 hours): 670 nM
IC50 [3]: 380 nM
IC50 [4]: 165 nM

Compound: CO[C@@H]1C[C@@H](COc2nc(N3CCOC[C@@](C)(O)C3)c3c(n2)sc2c(-c4c(C5CC5)c(C(F)(F)F)cc5[nH]ncc45)nccc23)N(C)C1 [Ex-85, (6S)-4-(8-(5-cyclopropyl-6-(trifluoromethyl)-1H-indazol-4-yl)-2-(((2S,4R)-4-methoxy-1-methylpyrrolidin-2-yl)methoxy)pyrido[4′,3′:4,5]thi-eno[2,3-d]pyrimidin-4-yl)-6-methyl-1,4-oxazepan-6-ol]
IC50 [1]: 44.3 nM
IC50 ([2]; KRAS-G12D, 2 hours): 764 nM
IC50 [3]: 81.1 nM
IC50 [4]: 38.8 nM

Compound: Cc1cc2[nH]ncc2c(-c2nccc3c2sc2nc(OC[C@@]45CCCN4C[C@H](F)C5)nc(N4CCC[C@@]5(CNC(=O)O5)C4)c23)c1C(F)(F)F [Ex-196, (5R)-7-(2-(((2R,7aS)-2-fluorotetrahydro-1H-pyr-rolizin-7a(5)-yl)methoxy)-8-(6-methyl-5-(trifluoro-methyl)-1H-indazol-4-yl)-pyrido[4′,3′:4,5]thieno[2,3-d]pyrimidin-4-yl)-1-oxa-3,7-diazaspiro[4.5]decan-2-one]
IC50 [1]: 19.4 nM
IC50 ([2]; 2 hours compound incubation): 1870 nM
IC50 [3]: 35.8 nM
IC50 [4]: 8.06 nM

Compound: C=C(c1c(C)cc2[nH]ncc2c1-c1nccc2c1sc1nc(OC[C@@]34CCCN3C[C@H](F)C4)nc(N3CCOC[C@@](C)(O)C3)c12)C(F)(F)F [Ex-66, (6S)-4-(2-(((2R,7aS)-2-fluorotetrahydro-1H-pyrrolizin-7a(5H)-yl)methoxy)-8-(6-methyl-5-(3,3,3-trifluoroprop-1-en-2-yl)-1H-indazol-4-yl)pyrido[4′,3′:4,5]thieno [2,3-d]pyrimidin-4-yl)-6-methyl-1,4-oxazepan-6-ol]
IC50 [1]: 57.9 nM
IC50 ([2]; KRAS-G12D, 2 hours): 457 nM
IC50 [3]: 218 nM
IC50 [4]: 93.6 nM

More lines, in order of falling IC50 [1], values ahead:

IC50 [1]: 239 nM
IC50 ([2]; 2 hours compound incubation): 2310 nM
IC50 [3]: 936 nM
IC50 [4]: 339 nM
Compound: Cc1cc2[nH]ncc2c(-c2nccc3c2sc2nc(O[C@@H](C)[C@@H]4CCCN4C)nc(N4CCOC[C@@](C)(O)C4)c23)c1C(F)(F)F [Ex-204, (6S)-6-methyl-4-(8-(6-methyl-5-(trifluoromethyl)-1H-indazol-4-yl)-2-((S)-1-((S)-1-methylpyrrolidin-2-yl)ethoxy)pyrido[4′,3′:4,5]thieno[2,3-d]pyrimidin-4-yl)-1,4-oxazepan-6-ol]

IC50 [1]: 166 nM
IC50 ([2]; KRAS-G12D, 2 hours): 635 nM
IC50 [3]: 260 nM
IC50 [4]: 121 nM
Compound: Cc1cc2[nH]ncc2c(-c2nccc3c2sc2nc(OC[C@@]45CCCN4C[C@H](F)C5)nc(N4CCOC[C@@](C)(O)C4)c23)c1C(C)(F)F [Ex-41, (6S)-4-(8-(5-(1,1-difluoroethyl)-6-methyl-1H-indazol-4-yl)-2-(((2R,7aS)-2-fluorotetrahydro-1H-pyrrolizin-7a(5H)-yl)methoxy)pyrido[4′,3′:4,5]thi-eno[2,3-d]pyrimidin-4-yl)-6-methyl-1,4-oxazepan-6-ol]

IC50 [1]: 103 nM
IC50 ([2]; KRAS-G12D, 2 hours): 399 nM
IC50 [3]: 129 nM
IC50 [4]: 65 nM
Compound: C[C@@]1(O)COCCN(c2nc(OC[C@@]34CCCN3C[C@H](F)C4)nc3sc4c(-c5c6c(cc7[nH]ncc57)C5CC5C6)nccc4c23)C1 (stereo partly drawn) [Ex-91, (6S)-4-(2-(((2R,7aS)-2-fluorotetrahydro-1H-pyrrolizin-7a(5H)-yl)methoxy)-8-(5,5a,6,6a-tetrahydro-1H-cyclopropa[3,4]cyclopen-ta[1,2-f]indazol-4-yl)pyrido[4′,3′:4,5]thieno [2,3-d]pyrimidin-4-yl)-6-methyl-1,4-oxazepan-6-ol]

IC50 [1]: 18.6 nM
IC50 ([2]; 2 hours compound incubation): 152 nM
IC50 [3]: 36.2 nM
IC50 [4]: 8.56 nM
Compound: C[C@@]1(O)COCCN(c2nc(OC[C@]3(CN4CC5(CC5)C4)CC3(F)F)nc3sc4c(-c5c(C6(F)CC6)c(Cl)cc6[nH]ncc56)nccc4c23)C1 [Ex-250, (6S)-4-(2-(((R)-1-((5-azaspiro[2.3]hexan-5-yl)methyl)-2,2-difluorocyclopropyl)methoxy)-8-(6-chloro-5-(1-fluorocyclopropyl)-1H-indazol-4-yl)pyrido[4′,3′:4,5]thieno[2,3-d]pyrimidin-4-yl)-6-methyl-1,4-oxazepan-6-ol]
